Publication PMC5978884, “Dissection of the antimicrobial and hemolytic activity of Cap18: Generation of Cap18 derivatives with enhanced specificity” (PLoS ONE, 2018)
Read-outs that look alike come from different tables or passages of the source. Where no end group is shown, it is not given here.

Experiments:
[1] = system: all the tested bacterial species including Gram-positive and Gram-negative bacteria
Procedure: The minimum inhibitory concentrations (MICs) of the AMPs were measured in 96-well microtiter plates according the Clinical and Laboratory Standards Institute (CLSI, formerly National Committee for Clinical Laboratory Standards [NCCLS]). Briefly, liquid Mueller-Hinton-II medium containing increasing concentrations of AMPs is inoculated with a defined number of cells (approx. 10^5 CFUs/ml) in 96-well microtiter plates (polypropylene), whereas each plate also includes a positive growth control and a negative control (sterile control). […] After incubation, the MIC is determined by the lowest concentration showing no visible growth. All plates were incubated for 16–20 hours. The MIC of the reference antibiotics was determined by the use of Sensititre panels (Trek Diagnostic Systems Ltd, East Grinstead, UK).
To identify Cap18 variant peptides with changed species specificity, the antimicrobial screening data of Y. ruckeri, A. salmonicida, S. Typhimurium and L. lactis was compared.
In addition, three Cap18 derivatives harboring either a I13F, I13M or G26T substitution were ordered as positive controls. […] The antimicrobial activity of the highly pure peptides was determined by measuring the MIC value of each derivative against the four test strains Y. ruckeri, A. salmonicida, S.Typhimurium and L. lactis (Table 6). […] In addition to the additional screening strains, a wider range of relevant pathogens including Gram-positive and Gram-negative bacteria was analyzed for targeted antimicrobial activity.

[2] = system: Lactococcus lactis IL1403; assay type: cell-based
Procedure: (§1) All strains were grown in Mueller-Hinton-II medium, except L. monocytogenes which was grown in BHI medium and L. lactis which was grown in MRS medium. Incubation took place aerobically at 37°C, except for Y. ruckeri and A. salmonicida, which were grown aerobically at RT (20 °C), and L. lactis grown aerobically at 30°C. All plates were incubated for 16–21 hours.
(§2) The minimum inhibitory concentrations (MICs) of the AMPs were measured in 96-well microtiter plates according the Clinical and Laboratory Standards Institute (CLSI, formerly National Committee for Clinical Laboratory Standards [NCCLS]). Briefly, liquid Mueller-Hinton-II medium containing increasing concentrations of AMPs is inoculated with a defined number of cells (approx. 10^5 CFUs/ml) in 96-well microtiter plates (polypropylene), whereas each plate also includes a positive growth control and a negative control (sterile control). The range of peptide concentrations analyzed was 0.125–64 μg/ml for the high purity peptides and 0.06–32 μg/ml for peptides of the variant library. After incubation, the MIC is determined by the lowest concentration showing no visible growth. All plates were incubated for 16–20 hours. The MIC of the reference antibiotics was determined by the use of Sensititre panels (Trek Diagnostic Systems Ltd, East Grinstead, UK).

[3] = system: Enterococcus faecalis ATCC29212; assay type: cell-based
Procedure: as §1, §2

[4] = system: Pseudomonas aeruginosa ATCC27853; assay type: cell-based
Procedure: as §1, §2

[5] = system: Listeria monocytogenes N22-2; assay type: cell-based
Procedure: as §1, §2

[6] = system: Aeromonas salmonicida ATCC33658; assay: microbe, parasite or virus in culture; assay type: cell-based; conditions: ATCC33658
Procedure: as §1, §2

[7] = system: Escherichia coli ATCC25922; assay type: cell-based
Procedure: as §1, §2

[8] = system: Salmonella enterica serovar Typhimurium LT2; assay: microbe, parasite or virus in culture; assay type: cell-based; conditions: LT2
Procedure: as §1, §2

[9] = system: Yersinia ruckeri 392/2003; assay: microbe, parasite or virus in culture; assay type: cell-based
Procedure: as §1, §2

[10] = system: horse erythrocytes; design: method as in PMID 26656394; conditions: cited from earlier work
[11] = previous study; cited from earlier work
Description: It must be expected that AMPs during evolution have evolved towards a high general activity against multiple microorganisms. In this study, we address the issues of species specificity, hemolytic activity and antimicrobial activity of Cap18, a α-helical peptide of the cathelicidin family.

Sequence | MIC against all the tested bacterial species [1] [µg/mL] | MIC L. lactis IL1403 [2] [µg/mL] | MIC E. faecalis ATCC29212 [3] [µg/mL] | MIC P. aeruginosa ATCC27853 [4] [µg/mL] | MIC L. monocytogenes N22-2 [5] [µg/mL] | MIC A. salmonicida ATCC33658 [6] [µg/mL] | MIC E. coli ATCC25922 [7] [µg/mL] | MIC S. Typhimurium LT2 [8] [µg/mL] | MIC Y. ruckeri 392/2003 [9] [µg/mL] | Hemolytic activity in vitro [10] | Thermostability [11] | MIC L. lactis [2] [µg/mL] | MIC S. Typhimurium [8] [µg/mL] | MIC Y. ruckeri [9] [µg/mL] | MIC Y. ruckeri 392/2003 ([9]; high purity peptides, Mueller-Hinton-II, RT (20 °C), 0.125–64 μg/ml, triplicates) [µg/mL] | MIC A. salmonicida [6] [µg/mL]
GLRKRLRKFRNKIKEKDKKIGQKIQGLLPKLAPRTDY [Peptide 16] | ≥ 32 | ≥64 | ≥64 | ≥64 | ≥64 | ≥64 |  |  |  |  |  |  |  |  |  | 
GLRKRLRKFRNKDKEKLKKIGQKIQGLLPKLAPRTDY [Peptide 3] | ≥ 32 | ≥64 | ≥64 | ≥64 | 32 to 64 | ≥64 | ≥64 | ≥64 | ≥64 |  |  |  |  |  |  | 
GLRKRLRKFRNKIKEKLKKIGQKDQGLLPKLAPRTDY [Peptide 26] | ≥ 32 | ≥64 | ≥64 | ≥64 | ≥64 | ≥64 | ≥64 | ≥64 | ≥64 |  |  |  |  |  |  | 
GLRKRLRKFRNKIKEKPKKIGQKIQGLLPKLAPRTDY [Peptide 18] | ≥ 32 | ≥64 | ≥64 | ≥64 | ≥64 | ≥64 | ≥64 | ≥64 |  |  |  |  |  |  |  | 
GLRKRLRKFRNKIKEKLKKIGQKIQGLLPKLAPRTDY [Cap18] |  | 1 to 2 | 8 | 4 to 8 | 4 | 4 | 4 to 8 | 4 to 8 |  | no hemolytic activity | highly thermostable | 2 to 4 | 2 to 4 | 2 | 2 to 4 | 2
